Marks after values point to notes of the source that are not given here.
Legend:
TNBS induced colitis [1] = system: TNBS induced colitis
IL6 = experiment: Plasma cytokine ELISA in TNBS colitis rats: IL6; conditions: Example 3; oral day 4-10: PB6 1.5 108 CFU/Kg thrice daily; Lysophospholipid 10.3 mg/Kg 2 times daily; combination 25.75 mg/ml 2 times daily; Mesacol 250 mg/Kg once daily
IL10 = experiment: Plasma cytokine ELISA in TNBS colitis rats: IL10
TNF-α = experiment: Plasma cytokine ELISA in TNBS colitis rats: TNF-α
IL1-β = experiment: Plasma cytokine ELISA in TNBS colitis rats: IL1-β
IFN-γ = experiment: Plasma cytokine ELISA in TNBS colitis rats: IFN-γ
TGF-β = experiment: Plasma cytokine ELISA in TNBS colitis rats: TGF-β
TNBS induced colitis [2] = experiment: TNBS induced colitis in rats: colon wet weight and macroscopic colon score; conditions: for Colon Score / Colon wet weight (g): day 11
HepG2/NFκB-Luc cells = experiment: Cytotoxicity test (AlamarBlue reduction rate); format: cell-based; conditions: 2 mg/ml (~3636 μM) LPC content; 4 hours; FIG. 8
Method: An overnight culture of HepG2/NFκB-Luc cells were trypsinized and transferred to 96-well microtiter plate, with 1.5×10^4 cells/well. The 96-well microtiter plates were incubated for 24 hours at 37° C. with 5% CO2. Then different concentrations of LPC samples were added into plate wells together with AlamarBlue. The cells were incubated for 4 hours at 37° C. with 5% CO2 before the OD570 and OD600 readings were measured. Culture medium with no LPC added was used as a control. The cytotoxicity was reflected by the amount of AlamarBlue being reduced (reduction rate (RR)) as determined by the following formula:
RR %={[(εoxλ2)(Aλ1)−(εoxλ1)(Aλ2)]}/{[(εredλ1)(A′λ2)−(εredλ2)(A′λ1)]}×100%
where, εredλ1=155677 (absorption coefficient of reduced AlamarBlue at 570 nm) • Εredλ2=14652 (absorption coefficient of reduced AlamarBlue at 600 nm) • εoxλ1=80586 (absorption coefficient of oxidized AlamarBlue at 570 nm) • εoxλ2=117216 (absorption coefficient of oxidized AlamarBlue at 600 nm) • A′λ1=OD570 of the blank control (wells with AlamarBlue but no cells) • A′λ2=OD600 of the blank control (wells with AlamarBlue but no cells).

NFκB = experiment: Inflammation test without TNF-α (NFκB luciferase reporter); format: cell-based; conditions: FIG. 9
Method: An overnight culture of HepG2/NFκB-Luc cells were trypsinized and transferred to 96-well microtiter plate, with 1.5×10^4 cells/well. […] After incubation, the supernatant was removed, and 100 μl of luciferase substrate was added into each well and incubated for 5 minutes. Then 80 μl of the solution was transferred to a clean microtiter plate to determine the florescence unit by Steady-Glo® Luciferase Assay System. The LPC-treated cells without substrate added were used as control.

[3] = design: species or system Cobb 400 broiler chickens; conditions: in vivo
[4] = design: species or system Cobb 400 broiler chickens; conditions: in vivo; remark: listed apart in the source
[5] = Example 3, oral day 4-10: PB6 1.5 108 CFU/Kg thrice daily, Lysophospholipid 10.3 mg/Kg 2 times daily, combination 25.75 mg/ml 2 times daily, Mesacol 250 mg/Kg once daily
[6] = Example 4, Lysoprin + Marinol + lutein at 21.5 mg/kg orally thrice daily day 4-10, Mesacol 250 mg/Kg orally once daily

Nc1ccc(O)c(C(=O)O)c1 [Mesacol, 5-aminosalicylic acid]
% Body weight gain/loss Day 1-4 (TNBS induced colitis [1]; Example 3, TNBS day 1, Day 1-4 is prior to treatment (treatment from day 4)): −6.6%
% Body weight gain/loss Day 4-10 (TNBS induced colitis [1]; Example 3, oral day 4-10: PB6 1.5 10^8 CFU/Kg thrice daily, Lysophospholipids 10.3 mg/Kg 2 times daily, combination 25.75 mg/ml 2 times daily, Mesacol 250 mg/Kg once daily): −1.87%
mortalities due to severe weight loss (TNBS induced colitis [1]; Example 4, Mesacol 250 mg/kg group, n=6): two
IL6 level in Plasma Day 11 (IL6): 127.4^a picogram/ml
IL10 level in Plasma Day 7 (IL10; [5]): 217.9ab picogram/ml
IL10 level in Plasma Day 11 (IL10; [5]): 444c picogram/ml
IL10 level in Plasma Day 7 (IL10; [6]): 231^ab picogram/ml
IL10 level in Plasma Day 11 (IL10; [6]): 454^d picogram/ml
TNF-α level in Plasma Day 7 (TNF-α; [5]): 22.77^a picogram/ml
TNF-α level in Plasma Day 11 (TNF-α; [5]): 30.27^b picogram/ml
TNF-α level in Plasma Day 7 (TNF-α; [6]): 29±^ab picogram/ml
TNF-α level in Plasma Day 11 (TNF-α; [6]): 28±^a picogram/ml
IL1-β level in Plasma Day 7 (IL1-β; [5]): 881.52^b picogram/ml
IL1-β level in Plasma Day 11 (IL1-β; [5]): 848.33^bc picogram/ml
IL1-β level in Plasma Day 7 (IL1-β; [6]): 567±^a picogram/ml
IL1-β level in Plasma Day 11 (IL1-β; [6]): 685±^bc picogram/ml
IFN-γ level in Plasma Day 7 (IFN-γ; [5]): 20.8^a picogram/ml
IFN-γ level in Plasma Day 11 (IFN-γ; [5]): 40.23^c picogram/ml
IFN-γ level in Plasma Day 7 (IFN-γ; [6]): 37^b picogram/ml
IFN-γ level in Plasma Day 11 (IFN-γ; [6]): 40^c picogram/ml
TGF-β level in Plasma Day 7 (TGF-β; [5]): 17535 ± 2261a picogram/ml
TGF-β level in Plasma Day 11 (TGF-β; [5]): 32542 ± 5294b picogram/ml
TGF level in Plasma Day 7 (TGF-β; [6]): 37^b picogram/ml
TGF level in Plasma Day 11 (TGF-β; [6]): 40^c picogram/ml
macroscopic examination of the colonic tissue (TNBS induced colitis [2]; Example 3, PB6 (Group 4), Lysophospholipid 10.3 mg/kg (Group 5), combination 21.63 mg/kg (Group 6), Mesacol (Group 7)): no lesions with any visible inflammation or injury in the colonic tissue
Colon Score (TNBS induced colitis [2]; Example 3, macroscopic grade 0-5, oral day 4-10: PB6 1.5 108 CFU/Kg thrice daily, Lysophospholipids 10.3 mg/Kg 2 times daily, combination 25.75 mg/ml 2 times daily, Mesacol 250 mg/Kg once daily): 0.833^a
Colon wet weight (g) (TNBS induced colitis [2]; Example 3, oral day 4-10: PB6 1.5 108 CFU/Kg thrice daily, Lysophospholipids 10.3 mg/Kg 2 times daily, combination 25.75 mg/ml 2 times daily, Mesacol 250 mg/Kg once daily): 0.669^a g
Colon wet weight (g) (TNBS induced colitis [2]; Example 4, Lysoprin + Marinol + lutein at 21.5 mg/kg orally thrice daily day 4-10, Mesacol 250 mg/Kg orally once daily day 4-10): 0.336^ab g
Colon Score (TNBS induced colitis [2]; Example 4, grade 0-5, Lysoprin + Marinol + lutein at 21.5 mg/kg orally thrice daily day 4-10, Mesacol 250 mg/Kg orally once daily day 4-10): 1.000^a
macroscopic examination of the colonic tissue (TNBS induced colitis [2]; Example 4, low dose combination at 21.63 mg/kg (Group 4), Mesacol (Group 6, n=4/6)): signs of amelioration with reduced localized ulceration

lysophosphatidylcholine [pure LPC]
cytotoxicity (AlamarBlue reduction rate) (HepG2/NFκB-Luc cells): Certain inhibition
inflammation activity (luciferase activity), without TNF-α, highest concentration (NFκB; 50 μM of LPC, compared to the mock treatment): no statistical difference
inflammation activity (luciferase activity), without TNF-α (NFκB; 5, 15 and 50 μM LPC content, 6 hours): inflammatory effect at all the three concentrations tested

CCC(=O)[O-].CCC(=O)[O-].CCC(=O)[O-].[Cr+3] [Treatment 3, chromium propionate]
relative weight of the thymus [3]: higher
FCR [4]: A similar trend
weight gain [4]: A similar trend

CC1=C[C@H](O)CC(C)(C)[C@H]1/C=C/C(C)=C/C=C/C(C)=C/C=C/C=C(C)/C=C/C=C(C)/C=C/C1=C(C)C[C@@H](O)CC1(C)C [Treatment 2, lutein]
performance (feed intake, weight gain, FCR) [4]: comparable to that of the control group
